In paper PMC12191596, “Gene Expression and Enzyme Kinetics of Polyphenol Oxidases in Strawberry and Their Possible Involvement in Enzymatic Browning Reactions in Strawberry Nectar” (Foods, 2025):

Tests used:
PPO1 (FaPPO 1) [1] = test system: T1, PPO1 (FaPPO 1); assay: spectrophotometry, […] nm; format: biochemical; details: 50 mM Tris-HCl pH 7, 0.7 mM SDS, 25 °C
T1 construct: latent PPO, transit peptide removed, C-terminal shielding domain kept, N-terminal 6xHis tag, pET28, E. coli BL21(DE3)

PPO4 (FaPPO 4) [2] = assay: spectrophotometry, […] nm; format: biochemical, Fragaria vesca; details: 50 mM Tris-HCl pH 7, 1 mM SDS, 25 °C
PPO2 (FaPPO 2) [3] = test system: T2, PPO2 (FaPPO 2); assay: spectrophotometry, […] nm; format: biochemical, Fragaria vesca; details: 50 mM Tris-HCl pH 7, 0.7 mM SDS, 25 °C
T2 construct: latent PPO, transit peptide removed, C-terminal shielding domain kept, N-terminal 6xHis tag, non-codon-optimized cDNA, pET28, E. coli BL21(DE3)

PPO2 (FaPPO 2) [4] = test system: T2, PPO2 (FaPPO 2); assay: spectrophotometry, […] nm; format: biochemical, Fragaria vesca; details: 50 mM Tris-HCl pH 7, 0.7 mM SDS, 25 °C; remark: listed apart in the source
PPO1 (FaPPO 1) [5] = test system: T1, PPO1 (FaPPO 1); assay: spectrophotometry, […] nm; format: biochemical; details: 50 mM Tris-HCl pH 7, 0.7 mM SDS, 25 °C; remark: listed apart in the source
PPO4 (FaPPO 4) [6] = assay: spectrophotometry, […] nm; format: biochemical, Fragaria vesca; details: 50 mM Tris-HCl pH 7, 1 mM SDS, 25 °C; remark: listed apart in the source
PPO4 (FaPPO 4) [7] = assay: spectrophotometry, […] nm; format: biochemical, Fragaria vesca; details: 50 mM Tris-HCl pH 7, 1 mM SDS, 25 °C; remark: listed apart in the source
PPO2 (FaPPO 2) [8] = test system: T2, PPO2 (FaPPO 2); assay: spectrophotometry, […] nm; format: biochemical, Fragaria vesca; details: 50 mM Tris-HCl pH 7, 0.7 mM SDS, 25 °C; remark: listed apart in the source
PPO1 (FaPPO 1) [9] = test system: T1, PPO1 (FaPPO 1); assay: spectrophotometry, […] nm; format: biochemical; details: 50 mM Tris-HCl pH 7, 0.7 mM SDS, 25 °C; remark: listed apart in the source
PPO2 (FaPPO 2) [10] = test system: T2, PPO2 (FaPPO 2); assay: spectrophotometry, […] nm; format: biochemical, Fragaria vesca; details: 50 mM Tris-HCl pH 7, 0.7 mM SDS, 25 °C; remark: listed apart in the source
PPO4 (FaPPO 4) [11] = assay: spectrophotometry, […] nm; format: biochemical, Fragaria vesca; details: 50 mM Tris-HCl pH 7, 1 mM SDS, 25 °C; remark: listed apart in the source
PPO1 (FaPPO 1) [12] = test system: T1, PPO1 (FaPPO 1); assay: spectrophotometry, […] nm; format: biochemical; details: 50 mM Tris-HCl pH 7, 0.7 mM SDS, 25 °C; remark: listed apart in the source
PPO1 (FaPPO 1) [13] = test system: T1, PPO1 (FaPPO 1); assay: spectrophotometry, […] nm, Hill fit; format: biochemical; details: 50 mM Tris-HCl pH 7, 0.7 mM SDS, 25 °C, cooperative
PPO2 (FaPPO 2) [14] = test system: T2, PPO2 (FaPPO 2); assay: spectrophotometry, […] nm, Hill fit; format: biochemical, Fragaria vesca; details: 50 mM Tris-HCl pH 7, 0.7 mM SDS, 25 °C, cooperative
PPO4 (FaPPO 4) [15] = assay: spectrophotometry, […] nm; format: biochemical, Fragaria vesca; details: 50 mM Tris-HCl pH 7, 1 mM SDS, 25 °C; remark: listed apart in the source
PPO1 (FaPPO 1) [16] = test system: T1, PPO1 (FaPPO 1); assay: spectrophotometry, […] nm; format: biochemical; details: 50 mM Tris-HCl pH 7, 0.7 mM SDS, 25 °C; remark: listed apart in the source
PPO2 (FaPPO 2) [17] = test system: T2, PPO2 (FaPPO 2); assay: spectrophotometry, […] nm; format: biochemical, Fragaria vesca; details: 50 mM Tris-HCl pH 7, 0.7 mM SDS, 25 °C; remark: listed apart in the source

Oc1cc(O)c2c(c1)O[C@H](c1ccc(O)c(O)c1)[C@@H](O)C2 [Catechin]
Km (PPO1 (FaPPO 1) [1]): 120 ± 30 µM | Km (PPO4 (FaPPO 4) [2]): 870 ± 80 µM | Km (PPO2 (FaPPO 2) [3]): 190 ± 40 µM

Oc1ccccc1O [Catechol]
Km (PPO2 (FaPPO 2) [4]): 7500 ± 600 µM | Km (PPO1 (FaPPO 1) [5]): 27000 ± 2000 µM | Km (PPO4 (FaPPO 4) [6]): 39000 ± 12000 µM

O=C(/C=C/c1ccc(O)c(O)c1)O[C@@H]1C[C@](O)(C(=O)O)C[C@@H](O)[C@H]1O [Chlorogenic acid]
Km (PPO2 (FaPPO 2) [4]): 1300 ± 200 µM | Km (PPO1 (FaPPO 1) [5]): 2700 ± 400 µM | Km (PPO4 (FaPPO 4) [6]): 1300 ± 200 µM

NCCc1ccc(O)c(O)c1 [Dopamine]
Km (PPO4 (FaPPO 4) [7]): 990 ± 110 µM | Km (PPO2 (FaPPO 2) [8]): 950 ± 120 µM | Km (PPO1 (FaPPO 1) [9]): 600 ± 100 µM

N[C@@H](Cc1ccc(O)c(O)c1)C(=O)O [L-DOPA]
Km (PPO2 (FaPPO 2) [10]): 5700 ± 1900 µM | Km (PPO4 (FaPPO 4) [11]): 3200 ± 1600 µM | Km (PPO1 (FaPPO 1) [12]): 2000 ± 400 µM

O=C(CCc1ccc(O)cc1)c1c(O)cc(O)cc1O [Phloretin]
Km (PPO1 (FaPPO 1) [13]): 82 ± 4 µM | Km (PPO2 (FaPPO 2) [14]): 600 ± 400 µM

NCCc1ccc(O)cc1 [Tyramine]
Km (PPO4 (FaPPO 4) [15]): 1300 ± 100 µM | Km (PPO1 (FaPPO 1) [16]): 500 ± 100 µM | Km (PPO2 (FaPPO 2) [17]): 600 ± 100 µM
